Experimental findings from patent US20060286040A1, “Medicament compositions comprising a heterocyclic compound and an anticholinergic” (Kyowa Hakko Kogyo Co., Ltd., priority 2003, published 2006) are described below.

The subject of the test is guinea pig main bronchus. As to the kind of experiment: EFS-induced cholinergic and tachykininergic contraction in the guinea pig main bronchus (organ bath). The note with it: for Cholinergic Contraction, % of the first contraction / Tachykininergic contraction, % of the first contraction: EFS 30 V, 0.5 ms, 8 Hz, 15 s, 10 nmol/L tiotropium bromide and/or 30 μmol/L Compound 2, measured 20 min after addition, indomethacin 5 μmol/L, means ± S.E.M.

Where [1] appears, read: 10 nmol/L tiotropium bromide and/or 30 μmol/L Compound 2, 20 min after addition.

In the case of tiotropium bromide, the “Cholinergic Contraction, % of the first contraction” value is 59.7 ± 6.3 % of the first contraction and the “Tachykininergic contraction, % of the first contraction” value was 90.9 ± 8.3 % of the first contraction. Moreover, under setting [1], the “Effect on EFS-induced cholinergic contraction (in words)” value is reported as “inhibited the cholinergic contraction”.

In the case of `COc1ccc(C(=O)Cc2c(Cl)cncc2Cl)c2c1OC1(CCCC1)O2` [Compound 2], the “Cholinergic Contraction, % of the first contraction” value is reported as 105.8 ± 2.4 % of the first contraction and the “Tachykininergic contraction, % of the first contraction” value is 66.1 ± 6.5 % of the first contraction. In addition, under setting [1], the “Effect on EFS-induced tachykininergic contraction (in words)” value is on record as “inhibited the tachykininergic contraction”.
